Legend:
YKL-5-124 = compound: C=CC(=O)Nc1ccc(C(=O)Nc2[nH]nc3c2CN(C(=O)N[C@H](CN(C)C)c2ccccc2)C3(C)C)cc1 [YKL-5-124]; experiment: increase in dead-cell fraction, 72 h; higher = more death;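 also: breast cancer cell lines in 384-well plates, stained with Hoechst plus LIVE/DEAD far red dye and imaged, cells above an LDR intensity threshold counted dead, Hoechst-negative corpses included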
BSJ-03-123 = compound: CC(=O)c1c(C)c2cnc(Nc3ccc(N4CCN(CCOCCOCCOCCNC(=O)COc5cccc6c5C(=O)N(C5CCC(=O)NC5=O)C6=O)CC4)cn3)nc2n(C2CCCC2)c1=O [BSJ-03-123]; experiment: as above
[1] = compound: CC(=O)c1c(C)c2cnc(Nc3ccc(N4CCNCC4)cn3)nc2n(C2CCCC2)c1=O; experiment: as above
[2] = compound: CCN1CCN(Cc2ccc(Nc3ncc(F)c(-c4cc(F)c5nc(C)n(C(C)C)c5c4)n3)nc2)CC1; experiment: as above
Neratinib/HKI272 [3] = compound: T1, CCOc1cc2ncc(C#N)c(Nc3ccc(OCc4ccccn4)c(Cl)c3)c2cc1NC(=O)/C=C/CN(C)C [Neratinib/HKI272]; experiment: as above
[4] = compound: CCc1cnn2c(NCc3ccc[n+]([O-])c3)cc(N3CCCC[C@H]3CCO)nc12; experiment: as above
LEE011/Ribociclib = compound: CN(C)C(=O)c1cc2cnc(Nc3ccc(N4CCNCC4)cn3)nc2n1C1CCCC1 [LEE011/Ribociclib]; experiment: as above
THZ531 = compound: CN(C)C/C=C/C(=O)Nc1ccc(C(=O)N2CCC[C@@H](Nc3ncc(Cl)c(-c4c[nH]c5ccccc45)n3)C2)cc1 [THZ531]; experiment: as above
THZ1 [5] = compound: T2, CN(C)C/C=C/C(=O)Nc1ccc(C(=O)Nc2cccc(Nc3ncc(Cl)c(-c4c[nH]c5ccccc45)n3)c2)cc1 [THZ1]; experiment: as above
Flavopiridol = compound: CN1CC[C@H](c2c(O)cc(O)c3c(=O)cc(-c4ccccc4Cl)oc23)[C@H](O)C1 [Flavopiridol]; experiment: as above
Neratinib/HKI272 [6] = compound: T1, Neratinib/HKI272; experiment: GR value, 72 h; higher = faster growth (1 = untreated, <0 = killing);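 also: breast cancer and non-malignant breast epithelial lines, nine half-log doses, viable cells counted by Hoechst and LIVE/DEAD dye imaging versus time-zero plates and DMSO controls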
THZ1 [7] = compound: T2, THZ1; experiment: as above

## BT20
YKL-5-124; 0.001 µM
  increase in dead-cell fraction: 0.0021
YKL-5-124; 0.003162 µM
  increase in dead-cell fraction: 0.0037
YKL-5-124; 0.01 µM
  increase in dead-cell fraction: 0.0071
YKL-5-124; 0.03162 µM
  increase in dead-cell fraction: 0.0095
YKL-5-124; 0.1 µM
  increase in dead-cell fraction: 0.0196
YKL-5-124; 0.3162 µM
  increase in dead-cell fraction: 0.01
YKL-5-124; 1 µM
  increase in dead-cell fraction: 0.0231
YKL-5-124; 3.162 µM
  increase in dead-cell fraction: 0.0292
YKL-5-124; 10 µM
  increase in dead-cell fraction: 0.0824
BSJ-03-123; 0.001 µM
  increase in dead-cell fraction: -0.0015
BSJ-03-123; 0.003162 µM
  increase in dead-cell fraction: 0.0071
BSJ-03-123; 0.01 µM
  increase in dead-cell fraction: 0.0034
BSJ-03-123; 0.03162 µM
  increase in dead-cell fraction: 0.0088
BSJ-03-123; 0.1 µM
  increase in dead-cell fraction: 0.0041
BSJ-03-123; 0.3162 µM
  increase in dead-cell fraction: 0.0071
BSJ-03-123; 1 µM
  increase in dead-cell fraction: 0.0076
BSJ-03-123; 3.162 µM
  increase in dead-cell fraction: 0.008
BSJ-03-123; 10 µM
  increase in dead-cell fraction: 0.0323
[1]; 0.0003162 µM
  increase in dead-cell fraction: -0.0052
[1]; 0.001 µM
  increase in dead-cell fraction: -0.006
[1]; 0.003162 µM
  increase in dead-cell fraction: 0.0023
[1]; 0.01 µM
  increase in dead-cell fraction: 0.0093
[1]; 0.03162 µM
  increase in dead-cell fraction: 0.0193
[1]; 0.1 µM
  increase in dead-cell fraction: 0.0353
[1]; 0.3162 µM
  increase in dead-cell fraction: 0.0479
[1]; 1 µM
  increase in dead-cell fraction: 0.0439
[1]; 3.162 µM
  increase in dead-cell fraction: 0.0468
[2]; 0.001 µM
  increase in dead-cell fraction: -0.0036
[2]; 0.003162 µM
  increase in dead-cell fraction: -0.0047
[2]; 0.01 µM
  increase in dead-cell fraction: -0.0009
[2]; 0.03162 µM
  increase in dead-cell fraction: -0.0044
[2]; 0.1 µM
  increase in dead-cell fraction: 0.0079
[2]; 0.3162 µM
  increase in dead-cell fraction: 0.0034
[2]; 1 µM
  increase in dead-cell fraction: 0.0076
[2]; 3.162 µM
  increase in dead-cell fraction: 0.0117
[2]; 10 µM
  increase in dead-cell fraction: 0.363
Neratinib/HKI272 [3]; 0.0003162 µM
  increase in dead-cell fraction: -0.0021
Neratinib/HKI272 [3]; 0.001 µM
  increase in dead-cell fraction: -0.0068
Neratinib/HKI272 [3]; 0.003162 µM
  increase in dead-cell fraction: 0.001
Neratinib/HKI272 [3]; 0.01 µM
  increase in dead-cell fraction: 0.004
Neratinib/HKI272 [3]; 0.03162 µM
  increase in dead-cell fraction: 0.0258
Neratinib/HKI272 [3]; 0.1 µM
  increase in dead-cell fraction: 0.0444
Neratinib/HKI272 [3]; 0.3162 µM
  increase in dead-cell fraction: 0.0552
Neratinib/HKI272 [3]; 1 µM
  increase in dead-cell fraction: 0.0626
Neratinib/HKI272 [3]; 3.162 µM
  increase in dead-cell fraction: 0.169
[4]; 0.0001 µM
  increase in dead-cell fraction: 0.0075
[4]; 0.0003162 µM
  increase in dead-cell fraction: -0.0076
[4]; 0.001 µM
  increase in dead-cell fraction: -0.0014
[4]; 0.003162 µM
  increase in dead-cell fraction: -0.0106
[4]; 0.01 µM
  increase in dead-cell fraction: 0.0127
[4]; 0.03162 µM
  increase in dead-cell fraction: 0.456
[4]; 0.1 µM
  increase in dead-cell fraction: 0.789
[4]; 0.3162 µM
  increase in dead-cell fraction: 0.803
[4]; 1 µM
  increase in dead-cell fraction: 0.827
LEE011/Ribociclib; 0.001 µM
  increase in dead-cell fraction: 0.002
LEE011/Ribociclib; 0.003162 µM
  increase in dead-cell fraction: 0.0029
LEE011/Ribociclib; 0.01 µM
  increase in dead-cell fraction: 0.0024
LEE011/Ribociclib; 0.03162 µM
  increase in dead-cell fraction: 0.0037
LEE011/Ribociclib; 0.1 µM
  increase in dead-cell fraction: 0.0051
LEE011/Ribociclib; 0.3162 µM
  increase in dead-cell fraction: 0.0057
LEE011/Ribociclib; 1 µM
  increase in dead-cell fraction: 0.0086
LEE011/Ribociclib; 3.162 µM
  increase in dead-cell fraction: 0.0145
LEE011/Ribociclib; 10 µM
  increase in dead-cell fraction: 0.0266
THZ531; 0.0001 µM
  increase in dead-cell fraction: -0.0017
THZ531; 0.0003162 µM
  increase in dead-cell fraction: 0.0012
THZ531; 0.001 µM
  increase in dead-cell fraction: -0.0051
THZ531; 0.003162 µM
  increase in dead-cell fraction: 0.0009
THZ531; 0.01 µM
  increase in dead-cell fraction: -0.0031
THZ531; 0.03162 µM
  increase in dead-cell fraction: -0.0002
THZ531; 0.1 µM
  increase in dead-cell fraction: 0.003
THZ531; 0.3162 µM
  increase in dead-cell fraction: 0.0032
THZ531; 1 µM
  increase in dead-cell fraction: 0.0097
THZ1 [5]; 0.0001 µM
  increase in dead-cell fraction: 0.0002
THZ1 [5]; 0.0003162 µM
  increase in dead-cell fraction: 0.0003
THZ1 [5]; 0.001 µM
  increase in dead-cell fraction: -0.0025
THZ1 [5]; 0.003162 µM
  increase in dead-cell fraction: 0.0002
THZ1 [5]; 0.01 µM
  increase in dead-cell fraction: -0.0011
THZ1 [5]; 0.03162 µM
  increase in dead-cell fraction: -0.0033
THZ1 [5]; 0.1 µM
  increase in dead-cell fraction: -0.0037
THZ1 [5]; 0.3162 µM
  increase in dead-cell fraction: -0.001
THZ1 [5]; 1 µM
  increase in dead-cell fraction: 0.212
Flavopiridol; 0.0001 µM
  increase in dead-cell fraction: 0.0067
Flavopiridol; 0.0003162 µM
  increase in dead-cell fraction: 0.0031
Flavopiridol; 0.001 µM
  increase in dead-cell fraction: -0.001
Flavopiridol; 0.003162 µM
  increase in dead-cell fraction: -0.0003
Flavopiridol; 0.01 µM
  increase in dead-cell fraction: 0.0003
Flavopiridol; 0.03162 µM
  increase in dead-cell fraction: 0.0115
Flavopiridol; 0.1 µM
  increase in dead-cell fraction: 0.0027
Flavopiridol; 0.3162 µM
  increase in dead-cell fraction: 0.0458
Flavopiridol; 1 µM
  increase in dead-cell fraction: 0.637
Neratinib/HKI272 [6]; 0.0003162 µM
  GR value: 1.04 GR
Neratinib/HKI272 [6]; 0.001 µM
  GR value: 1.03 GR
Neratinib/HKI272 [6]; 0.003162 µM
  GR value: 1.07 GR
Neratinib/HKI272 [6]; 0.01 µM
  GR value: 0.976 GR
Neratinib/HKI272 [6]; 0.03162 µM
  GR value: 0.918 GR
Neratinib/HKI272 [6]; 0.1 µM
  GR value: 0.86 GR
Neratinib/HKI272 [6]; 0.3162 µM
  GR value: 0.693 GR
Neratinib/HKI272 [6]; 1 µM
  GR value: 0.607 GR
Neratinib/HKI272 [6]; 3.162 µM
  GR value: 0.295 GR
THZ1 [7]; 0.0001 µM
  GR value: 0.946 GR
THZ1 [7]; 0.0003162 µM
  GR value: 1.04 GR
THZ1 [7]; 0.001 µM
  GR value: 1 GR
THZ1 [7]; 0.003162 µM
  GR value: 1.02 GR
THZ1 [7]; 0.01 µM
  GR value: 1.03 GR
THZ1 [7]; 0.03162 µM
  GR value: 1.01 GR
THZ1 [7]; 0.1 µM
  GR value: 1.01 GR
THZ1 [7]; 0.3162 µM
  GR value: 0.807 GR
THZ1 [7]; 1 µM
  GR value: -0.409 GR

— the supplement of paper PMC9663587
